Data from US5925618A, “Peptides useful as somatostatin antagonists” (American Cyanamid Company, priority 1998, dated 1999).
Square brackets hold non-standard residues; d marks the D form. Peptide text beside a SMILES is read from it.

How the values were obtained:
Male Sprague-Dawley rats = test: Serum growth hormone levels in anaesthetized rats (peptide 1, BIM 23014C); assay type: in vivo, rat
Procedure: Evaluation in anaesthetized rats. Male Sprague-Dawley rats are anaesthetized with Sagatal and fitted so as to allow efficient intravenous treatment with control and test compounds as well as frequent blood sampling. Blood samples are tested for growth hormone (GH) levels by radioimmunoassay. Thirty minutes after the initiation of blood sampling, rats are given 5 μg, 25 μg or 50 μg of peptide 1.

[1] = target: T1, S. cerevisiae (yeast) cells expressing SRIF receptors (Rattus norvegicus, UniProt P30680); test: Yeast bioassay for SRIF antagonist activity (LY364 cells growing in response to SRIF, zone of growth inhibition); assay type: cell-based; conditions: Sample type 4th iteration; 10 μL of 5 mg/mL on disk, SRIF 10 nM, read after 3 days
T1 construct: expressed in transfected cells; host or cells: S. cerevisiae strain LY364
Description: SRIF antagonist assay using S. cerevisiae (yeast) cells expressing SRIF receptors that grow in response to SRIF
Agar plates containing LY364 cells that are growing in the presence of added SRIF are the basis for a sensitive SRIF antagonist assay, whereby zones of growth inhibition result from the addition of SRIF antagonists to the surface of the agar plate (see L. A. Price, et al., Molecular and Cellular Biology, 15, 6188-6195, 1995, incorporated herein by reference).
In this assay, LY364 cells are grown overnight in 2 mL of synthetic complete(SC) medium (3.4 g/L YNB without amino acids and ammonium sulfate, 10 g/L ammonium sulfate and 1.4 g/L CSM-ura-trp) with glucose (2%) and without uracil and tryptophan. These cells are washed and cultured for 4 to 8 hours in 5 mL of SC medium with lactate (3%) and without uracil and tryptophan, and finally grown overnight in 5 mL of SC medium with galactose (2%) and without uracil and tryptophan. Molten (50° C.) SC agar medium with galactose (2%) and without uracil, tryptophan and histidine is adjusted to pH 6.8 with KOH, mixed with 2×10^4 cells/mL and SRIF (S-14, 10 nM) and poured into square (20×20 cm) petri dishes. Sterile filter disks are placed on the surface of the agar, and saturated with 10 μL of water or DMSO containing 5 mg/mL test peptides. After three days, the plates display a uniform cloudy background of LY264 cells growing in response to the added SRIF. […] This zone is quantified by measuring its diameter (mm), which varies according to the potency of the SRIF antagonist. Those peptides or mixtures of peptides displaying the largest zones of inhibition are further characterized.
Values are compared among samples in the same experiment, as the degree of yeast growth varies somewhat from assay to assay. For the first five sample types, in which progressively less complex mixtures of peptides are found, this assay is the primary determining factor in choosing which samples form the basis of subsequent syntheses.
Plates are read after 3 days. Samples shown in Table I in bold type are chosen for further synthesis. In Table I, all amino acids are D-amino acids and dashes represent undefined amino acid residues.

rat SSTR2 = target: T2, rat SSTR2 (Rattus norvegicus, UniProt P30680); test: cAMP accumulation in forskolin-stimulated GH4 C1/SSTR2 cells; assay type: cell-based; conditions: GH4-C1; test peptide 2 μM; read-out: cAMP Assay, Intrinsic activity (percent reversal of SSTR2 activation by SRIF or MK678)
T2 construct: expressed in transfected cells; host or cells: GH4C1 rat pituitary tumor cells
Description: A primary effect of SRIF upon mammalian cells is the reduction of cyclic adenosine 3',5'-monophosphate(cAMP) levels, via inhibition of adenylyl cyclase. This is the basis of a common assay for SRIF agonists and antagonists, whereby SRIF agonists reduce artificially stimulated cAMP levels, and SRIF antagonists reverse the effect of SRIF. The rat pituitary tumor cell line GH4 C1 predominantly expresses SSTR2, and responds to SRIF and to forskolin, a stimulator of adenylate cyclase (see C. M. Eppler, et al., J. Biol. Chem., 267, 15603-15612, 1992, incorporated herein by reference). A highly sensitive assay for SRIF agonists and antagonists results from additionally transfecting GH4 C1 cells with the cloned rat SSTR2, (see L. A. Price, et al., Molecular and Cellular Biology, 15, 6188-6195, 1995, incorporated herein by reference). This increases the response to SRIF and provides a greater dynamic range for the measurement of SRIF antagonist activity.
Stimulation of cells. GH4 C1 /SSTR2 cells, grown in DMEM with 10% bovine serum, are released from a tissue culture dish by incubation for several minutes at 37° C. with PBS containing 0.5 mM EDTA. Cells are washed in induction buffer (PBS containing 100 μM IBMX (an inhibitor of cAMP breakdown) and 2 mM CaCl2) at room temperature, and resuspended at 2×10^6 /mL in induction buffer. Into each well of a 96-well tray are added 50 μL of a 2× concentration of stimulants in induction buffer. These include (at final concentration) 1.25 μM forskolin, 100 nM SRIF or 10 nM of the SSTR2-selective agonist MK678 and test peptides at various concentrations. To initiate stimulation of the cells, 50 μL (100,000) cells are added to each well, mixed by shaking 10 seconds on a plate shaker and placed at 37° C. for 15 minutes. Stimulation is arrested and cells are lysed by adding 15 μL 0.33N HCl to each well and incubating the plate for 30 minutes at 37° C. Samples are neutralized by addition of 15 μL 0.25N NaOH/50 mM Hepes pH 7.4. Baseline cAMP levels are determined in samples with no added forskolin or SRIF, and each treatment is performed in triplicate.
cAMP assay. To measure accumulated cAMP in the samples, a radioimmunoassay is employed. The scintillation proximity assay (SPA, Amersham, Arlington Heights, Ill.) allows the rapid measurement of ^125 I cAMP bound to a specific antibody without separating bound radioligand from free radioligand. Each of the following reagents (50 μL) are added per well in a 96-well tray: supernatants from the cell stimulation; ^125 I cAMP; SPA beads conjugated to monkey anti-rabbit IgG antibodies; and rabbit anti-cAMP antibodies. For the standard curve, known amounts of cAMP (0.2-12.8 pmol) are added in place of cell supernatants. The 96-well tray is sealed, shaken at room temperature overnight and measured for bound radioligand in a MicroBeta liquid scintillation counter (Wallac, Gaithersburg, Md.). The standard curve is determined for each experiment by performing a nonlinear regression (exponential decay) analysis of cpm measured for the cAMP standards vs. their log concentrations, and test sample values are determined by using Prism software (Graphpad Software Inc., San Diego, Calif.) and are shown in Table II and FIG. 1. FIG. I illustrates the antagonist activity of Peptide 1.
The intrinsic activity of an SRIF antagonist is the percent reversal of the SSTR2, activation by SRIF or MK678, wherein 0% is defined by cAMP levels in samples treated with forskolin plus SRIF or MK678 and 100% is the cAMP level measured after treatment with forskolin alone. Therefore, increased intrinsic activity of a test compound indicates increased antagonist activity of said test compound.
FIG. […]
An inverse agonist is a compound that is not only a pure antagonist (i.e. lacking agonist activity), but also blocks the constitutive activity of an unoccupied receptor. One indication of inverse agonist activity is the ability of a SRIF antagonist to increase cAMP levels in the absence of added SRIF. […]

T2 sequence (P30680 whole entry): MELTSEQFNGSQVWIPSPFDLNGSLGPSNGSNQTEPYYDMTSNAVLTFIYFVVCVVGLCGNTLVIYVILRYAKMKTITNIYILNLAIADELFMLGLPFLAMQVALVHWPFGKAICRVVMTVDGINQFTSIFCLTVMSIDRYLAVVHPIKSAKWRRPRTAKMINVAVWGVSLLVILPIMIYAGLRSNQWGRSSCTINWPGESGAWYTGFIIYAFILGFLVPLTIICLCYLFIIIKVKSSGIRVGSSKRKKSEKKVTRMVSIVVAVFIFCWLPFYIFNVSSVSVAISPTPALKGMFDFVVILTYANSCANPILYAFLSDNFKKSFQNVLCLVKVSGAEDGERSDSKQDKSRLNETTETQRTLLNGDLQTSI
T1 sequence (P30680 whole entry): as above

| SMILES | Inhibition Zone [1] | Emax (rat SSTR2) | also measured |
| --- | --- | --- | --- |
| CC(C)[C@@H]1NC(=O)[C@H](CCCCN)NC(=O)[C@@H](Cc2c[nH]c3ccccc23)NC(=O)[C@H](Cc2ccc(O)cc2)NC(=O)[C@@H](NC(=O)[C@H](N)Cc2ccc3ccccc3c2)CSSC[C@@H](C(=O)N[C@H](C(N)=O)[C@@H](C)O)NC1=O [BIM 23014C, reference compound] | – | – | SGH (Male Sprague-Dawley rats; 5 μg peptide 1 group, 10 μg BIM 23014C at 60 min, sample 75 min): 7.0 ng/mL; SGH (Male Sprague-Dawley rats; 5 μg peptide 1 group, 60 min (time of 10 μg BIM 23014C dose)): 11.4 ng/mL; serum GH levels after SRIF agonist (Male Sprague-Dawley rats; 10 μg at 60 minutes): induces the expected reduction in serum GH levels; SGH (Male Sprague-Dawley rats; 25 μg peptide 1 group, 10 μg BIM 23014C at 60 min, sample 75 min): 6.8 ng/mL; SGH (Male Sprague-Dawley rats; 25 μg peptide 1 group, 60 min (time of 10 μg BIM 23014C dose)): 13.1 ng/mL; SGH (Male Sprague-Dawley rats; 50 μg peptide 1 group, 10 μg BIM 23014C at 60 min, sample 75 min): 3.5 ng/mL; SGH (Male Sprague-Dawley rats; 50 μg peptide 1 group, 60 min (time of 10 μg BIM 23014C dose)): 17.1 ng/mL |
| CC[C@@H](C)[C@@H](NC(=O)[C@@H](Cc1ccccc1)NC(=O)[C@@H](Cc1c[nH]cn1)NC(C)=O)C(=O)N[C@H](CCCNC(=N)N)C(=O)N[C@H](Cc1c[nH]c2ccccc12)C(=O)N[C@H](C)C(N)=O [His Phe Ile Arg Trp Ala] (Ac-[dH][dF][dI][dR][dW][dA]-NH2) | 15 mm | – | – |
| CC[C@@H](C)[C@@H](NC(=O)[C@@H](Cc1ccccc1)NC(=O)[C@@H](Cc1c[nH]cn1)NC(C)=O)C(=O)N[C@H](CCCNC(=N)N)C(=O)N[C@H](Cc1c[nH]c2ccccc12)C(=O)N[C@H](CC(N)=O)C(N)=O [His Phe Ile Arg Trp Asn] (Ac-[dH][dF][dI][dR][dW][dN]-NH2) | 15 mm | – | – |
| CC[C@@H](C)[C@@H](NC(=O)[C@@H](Cc1ccccc1)NC(=O)[C@@H](Cc1c[nH]cn1)NC(C)=O)C(=O)N[C@H](CCCNC(=N)N)C(=O)N[C@H](Cc1c[nH]c2ccccc12)C(=O)N[C@H](CCC(N)=O)C(N)=O [His Phe Ile Arg Trp Gln] (Ac-[dH][dF][dI][dR][dW][dQ]-NH2) | 16 mm | – | – |
| CC[C@@H](C)[C@@H](NC(=O)[C@@H](Cc1ccccc1)NC(=O)[C@@H](Cc1c[nH]cn1)NC(C)=O)C(=O)N[C@H](CCCNC(=N)N)C(=O)N[C@H](Cc1c[nH]c2ccccc12)C(=O)NCC(N)=O [His Phe Ile Arg Trp Gly] (Ac-[dH][dF][dI][dR][dW]G-NH2) | 13 mm | – | – |
| CC[C@@H](C)[C@@H](NC(=O)[C@@H](Cc1c[nH]c2ccccc12)NC(=O)[C@@H](CCCNC(=N)N)NC(=O)[C@H](NC(=O)[C@@H](Cc1ccccc1)NC(=O)[C@@H](Cc1c[nH]cn1)NC(C)=O)[C@H](C)CC)C(N)=O [His Phe Ile Arg Trp Ile] (Ac-[dH][dF][dI][dR][dW][dI]-NH2) | 16 mm | – | – |
| CC[C@@H](C)[C@@H](NC(=O)[C@@H](Cc1ccccc1)NC(=O)[C@@H](Cc1c[nH]cn1)NC(C)=O)C(=O)N[C@H](CCCNC(=N)N)C(=O)N[C@H](Cc1c[nH]c2ccccc12)C(=O)N[C@H](CC(C)C)C(N)=O [His Phe Ile Arg Trp Leu] (Ac-[dH][dF][dI][dR][dW][dL]-NH2) | 15 mm | – | – |
| CC[C@@H](C)[C@@H](NC(=O)[C@@H](Cc1ccccc1)NC(=O)[C@@H](Cc1c[nH]cn1)NC(C)=O)C(=O)N[C@H](CCCNC(=N)N)C(=O)N[C@H](Cc1c[nH]c2ccccc12)C(=O)N[C@H](CCSC)C(N)=O [His Phe Ile Arg Trp Met] (Ac-[dH][dF][dI][dR][dW][dM]-NH2) | 18 mm | – | – |
| CC[C@@H](C)[C@@H](NC(=O)[C@@H](Cc1c[nH]cn1)NC(=O)[C@@H](Cc1c[nH]c2ccccc12)NC(C)=O)C(=O)N[C@H](CCCNC(=N)N)C(=O)N[C@H](Cc1c[nH]c2ccccc12)C(=O)N[C@H](Cc1ccccc1)C(N)=O [Peptide 22, w-h-i-r-w-f] (Ac-[dW][dH][dI][dR][dW][dF]-NH2) | – | 27.4% | – |
| CC[C@@H](C)[C@@H](NC(=O)[C@@H](Cc1ccc(O)cc1)NC(=O)[C@@H](Cc1c[nH]c2ccccc12)NC(C)=O)C(=O)N[C@H](CCCNC(=N)N)C(=O)N[C@H](Cc1c[nH]c2ccccc12)C(=O)N[C@H](Cc1ccccc1)C(N)=O [Peptide 23, w-y-i-r-w-f] (Ac-[dW][dY][dI][dR][dW][dF]-NH2) | – | 5.64% | – |
| CC[C@@H](C)[C@@H](NC(=O)[C@@H](Cc1c[nH]cn1)NC(=O)[C@@H](Cc1ccccc1)NC(C)=O)C(=O)N[C@H](CCCNC(=N)N)C(=O)N[C@H](Cc1c[nH]c2ccccc12)C(=O)N[C@H](Cc1ccccc1)C(N)=O [Peptide 24, f-h-i-r-w-f] (Ac-[dF][dH][dI][dR][dW][dF]-NH2) | – | 65.2% | – |
| CC[C@@H](C)[C@@H](NC(=O)[C@@H](CCCNC(=N)N)NC(=O)[C@@H](Cc1ccccc1)NC(C)=O)C(=O)N[C@H](CCCNC(=N)N)C(=O)N[C@H](Cc1c[nH]c2ccccc12)C(=O)N[C@H](Cc1ccccc1)C(N)=O [Peptide 25, f-r-i-r-w-f] (Ac-[dF][dR][dI][dR][dW][dF]-NH2) | – | 10.8% | – |
| CC[C@@H](C)[C@@H](NC(=O)[C@@H](Cc1ccccc1)NC(=O)[C@@H](Cc1c[nH]cn1)NC(C)=O)C(=O)N[C@H](CCCCN)C(=O)N[C@H](Cc1c[nH]c2ccccc12)C(=O)N[C@H](Cc1ccccc1)C(N)=O [Peptide 27, h-f-i-k-w-f] (Ac-[dH][dF][dI][dK][dW][dF]-NH2) | – | 71.2% | – |
| CC(=O)N[C@H](Cc1c[nH]cn1)C(=O)N[C@H](Cc1ccccc1)C(=O)N[C@@H](C(=O)N[C@H](CCCNC(=N)N)C(=O)N[C@H](Cc1c[nH]c2ccccc12)C(=O)N[C@H](Cc1ccccc1)C(N)=O)C(C)C [Peptide 28, h-f-v-r-w-f] (Ac-[dH][dF][dV][dR][dW][dF]-NH2) | – | 71.2% | – |
